Drawing on the NIST ThermoML archive (doi:10.1016/j.fluid.2015.10.027), this text covers mass density for 1 compound.

For the series the following is noted: 101.33 kPa, Liquid, Vibrating tube method.

Numbers after ± are expanded uncertainties.

Usually mass density stands for mass per unit of volume. For `CC1CCCC(C)N1` (stereo not given) [2,6-dimethylpiperidine], the mass density reads like this: (300.83 K) 816.664 ± 0.24 kg/m3; (304.05 K) 813.975 ± 0.24 kg/m3; (306.72 K) 811.615 ± 0.24 kg/m3; (309.8 K) 809.031 ± 0.24 kg/m3; (313.97 K) 805.478 ± 0.24 kg/m3.
